{"source": "patent US20240398790A1", "about": "(ABBVIE INC., priority 2021, published 2024)", "molecules": {"B1": {"name": "sarilumab: IL-6 inhibitor (antibody, chains of the INN, looked up, V domains shown)", "VH": "EVQLVESGGGLVQPGRSLRLSCAASRFTFDDYAMHWVRQAPGKGLEWVSGISWNSGRIGYADSVKGRFTISRDNAENSLFLQMNGLRAEDTALYYCAKGRDSFDIWGQGTMVTVSS", "VL": "DIQMTQSPSSVSASVGDRVTITCRASQGISSWLAWYQQKPGKAPKLLIYGASSLESGVPSRFSGSGSGTDFTLTISSLQPEDFASYYCQQANSFPYTFGQGTKLEIK"}}, "key": {"AS": {"system": "AS", "conditions": "literature; cited from earlier work"}, "[1]": {"system": "adult subjects with active ankylosing spondylitis (AS) who had an inadequate response to biologic disease-modifying anti-rheumatic drug therapy (bDMARD-IR)", "assay": "SELECT AXIS 2 Study 1, Phase 3 placebo-controlled, efficacy at Week 14", "format": "in vivo, human"}, "[2]": {"system": "adult subjects with active ankylosing spondylitis (AS) who had an inadequate response to biologic disease-modifying anti-rheumatic drug therapy (bDMARD-IR)", "conditions": "human, in vivo"}, "[3]": {"system": "bDMARD-naïve patients with AS who had an inadequate response to non-steroidal anti-inflammatory drugs (NSAIDs)", "conditions": "cited from earlier work"}, "[4]": {"system": "adult subjects with active ankylosing spondylitis (AS) who had an inadequate response to biologic disease-modifying anti-rheumatic drug therapy (bDMARD-IR)", "assay": "SELECT AXIS 2 Study 1, safety up to Week 14"}, "[5]": {"conditions": "AESI up to Week 14, N = 211, listed as Upadacitinib"}, "[6]": {"conditions": "AESI up to Week 14, N = 211, listed as upadacitinib freebase"}, "[7]": {"conditions": "CTCAE V4, Double-Blind Period (Week 14)"}, "[8]": {"conditions": "up to Week 14, N = 211, listed as RINVOQ"}}}
{"molecule": "ustekinumab: IL-12/23 inhibitor", "values": [{"measurement": "efficacy achieved in AS", "setting": "AS", "result": "low efficacy"}]}
{"molecule": "tocilizumab: IL-6 inhibitor", "values": [{"measurement": "efficacy achieved in AS", "setting": "AS", "result": "low efficacy"}]}
{"molecule": "CC[C@@H]1CN(C(=O)NCC(F)(F)F)C[C@@H]1c1cnc2cnc3[nH]ccc3n12", "note": "[upadacitinib, (3S,4R)-3-ethyl-4-(3H-imidazo[1,2-a]pyrrolo[2,3-e]pyrazin-8-yl)-N-(2,2,2-trifluoroethyl)pyrrolidine-1-carboxamide]", "values": [{"measurement": "AS QoL, UPA-PBO", "setting": "[1]", "result": "−3.07"}, {"measurement": "ASDAS(CRP) Low Disease Activity, UPA-PBO", "setting": "[1]", "result": 34.0}, {"measurement": "ASDAS(CRP), UPA-PBO", "setting": "[1]", "result": "−1.02"}, {"measurement": "BASFI (Function), UPA-PBO", "setting": "[1]", "result": "−1.17"}, {"measurement": "BASMI (Mobility), UPA-PBO", "setting": "[1]", "result": "−0.32"}, {"measurement": "MASES (Enthesitis)", "setting": "[1]", "result": "−2.6"}, {"measurement": "MASES (Enthesitis), UPA-PBO", "setting": "[1]", "result": "−1.5"}, {"measurement": "MRI Spine SPARCC, UPA-PBO", "setting": "[1]", "result": "−3.90"}, {"measurement": "Nocturnal Back Pain, UPA-PBO", "setting": "[1]", "result": "−1.7"}, {"measurement": "Total Back Pain, UPA-PBO", "setting": "[1]", "result": "−1.53"}, {"measurement": "AS QoL", "setting": "[1]; 15 mg", "result": "−5.10"}, {"measurement": "ASDAS(CRP)", "setting": "[1]; 15 mg", "result": "−1.52"}, {"measurement": "BASFI (Function)", "setting": "[1]; 15 mg", "result": "−2.26"}, {"measurement": "BASMI (Mobility)", "setting": "[1]; 15 mg", "result": "−0.48"}, {"measurement": "MRI Spine SPARCC", "setting": "[1]; 15 mg", "result": "−3.95"}, {"measurement": "Nocturnal Back Pain", "setting": "[1]; 15 mg", "result": "−3.2"}, {"measurement": "Total Back Pain", "setting": "[1]; 15 mg", "result": "−3.00"}, {"measurement": "onset of effect in ASAS40", "setting": "[1]; 15 mg", "result": 4, "unit": "Week"}, {"measurement": "ASDAS(CRP) Low Disease Activity", "setting": "[1]; 15 mg QD, Week 14, NRI-MI", "result": 44.1, "unit": "%"}, {"measurement": "Opportunistic infection excluding tuberculosis and herpes zoster", "setting": "[2]", "result": "0 (0.0) n (%)"}, {"measurement": "COVID-19 related AE, %", "setting": "[2]; 14 weeks", "result": "(5.7) %"}, {"measurement": "ASAS40 response at Week 14 (primary endpoint) versus placebo", "setting": "[3]; SELECT-AXIS 1, Week 14", "result": "significantly greater achievement"}, {"measurement": "efficacy once achieved at Week 14, over time", "setting": "[3]; SELECT-AXIS 1, up to and including Week 64", "result": "sustained or improved over time"}, {"measurement": "Adverse event (AE), %", "setting": "[4]; 15 mg QD, up to Week 14, N = 211", "result": "(40.8) %"}, {"measurement": "Serious infections, proportion of patients", "setting": "[4]; 15 mg, through week 14", "result": 2.4, "unit": "%"}, {"measurement": "herpes zoster, proportion of patients", "setting": "[4]; 15 mg, through week 14", "result": 0.9, "unit": "%"}, {"measurement": "Active tuberculosis", "setting": "[4]; AESI up to Week 14, N = 211", "result": "0 (0.0) n (%)"}, {"measurement": "Anemia", "setting": "[4]; AESI up to Week 14, N = 211", "result": "3 (1.4) n (%)"}, {"measurement": "Hepatic disorder", "setting": "[4]; AESI up to Week 14, N = 211", "result": "6 (2.8) n (%)"}, {"measurement": "Herpes zoster", "setting": "[4]; AESI up to Week 14, N = 211", "result": "2 (0.9) n (%)"}, {"measurement": "Infection", "setting": "[4]; AESI up to Week 14, N = 211", "result": "31 (14.7) n (%)"}, {"measurement": "Lymphoma", "setting": "[4]; AESI up to Week 14, N = 211", "result": "0 (0.0) n (%)"}, {"measurement": "Lymphopenia", "setting": "[4]; AESI up to Week 14, N = 211", "result": "1 (0.5) n (%)"}, {"measurement": "Malignancy", "setting": "[4]; AESI up to Week 14, N = 211", "result": "No malignancy"}, {"measurement": "Malignancy other than NMSC", "setting": "[4]; AESI up to Week 14, N = 211", "result": "0 (0.0) n (%)"}, {"measurement": "Neutropenia", "setting": "[4]; AESI up to Week 14, N = 211", "result": "6 (2.8) n (%)"}, {"measurement": "Non-melanoma skin cancer (NMSC)", "setting": "[4]; AESI up to Week 14, N = 211", "result": "0 (0.0) n (%)"}, {"measurement": "Renal dysfunction", "setting": "[4]; AESI up to Week 14, N = 211", "result": "0 (0.0) n (%)"}, {"measurement": "Serious infection", "setting": "[4]; AESI up to Week 14, N = 211", "result": "5 (2.4) n (%)"}, {"measurement": "Adjudicated MACE", "setting": "[4]; [5]", "result": "0 (0.0) n (%)"}, {"measurement": "Adjudicated gastrointestinal perforation", "setting": "[4]; [5]", "result": "0 (0.0) n (%)"}, {"measurement": "Adjudicated venous thromboembolic events", "setting": "[4]; [5]", "result": "0 (0.0) n (%)"}, {"measurement": "Malignancy", "setting": "[4]; [5]", "result": "0 (0.0) n (%)"}, {"measurement": "Adjudicated MACE", "setting": "[4]; [6]", "result": "no events"}, {"measurement": "Adjudicated gastrointestinal perforation", "setting": "[4]; [6]", "result": "no events"}, {"measurement": "Adjudicated venous thromboembolic events", "setting": "[4]; [6]", "result": "no events"}, {"measurement": "Malignancy", "setting": "[4]; [6]", "result": "no events"}, {"measurement": "ALT (U/L) Grade 4 (>20.0 xULN)", "setting": "[4]; [7]", "result": "0/211"}, {"measurement": "AST (U/L) Grade 4 (>20.0 xULN)", "setting": "[4]; [7]", "result": "0/211"}, {"measurement": "Creatinine (umol/L) Grade 3 (>3.0-6.0 xULN or >3.0 xBaseline)", "setting": "[4]; [7]", "result": "0/211"}, {"measurement": "Creatinine (umol/L) Grade 4 (>6.0 xULN)", "setting": "[4]; [7]", "result": "0/211"}, {"measurement": "Hemoglobin (g/L) Grade 3 (<80)", "setting": "[4]; [7]", "result": "0/211"}, {"measurement": "Lymphocytes (10^9/L) Grade 4 (<0.2)", "setting": "[4]; [7]", "result": "0/211"}, {"measurement": "Neutrophils (10^9/L) Grade 4 (<0.5)", "setting": "[4]; [7]", "result": "0/211"}, {"measurement": "safety profile", "setting": "[4]; Phase 3 AS bDMARD-IR study", "result": "no new risks were identified"}, {"measurement": "AE with reasonable possibility of being related to study treatment, %", "setting": "[4]; as assessed by investigator, up to Week 14, N = 211", "result": "(17.1) %"}, {"measurement": "hepatic disorders reported, nature", "setting": "[4]; up to Week 14", "result": "mild or moderate transaminase elevations"}, {"measurement": "AE leading to death, %", "setting": "[4]; up to Week 14, N = 211", "result": "(0.0) %"}, {"measurement": "AE leading to withdrawal of study treatment, %", "setting": "[4]; up to Week 14, N = 211", "result": "(0.0) %"}, {"measurement": "All deaths, %", "setting": "[4]; up to Week 14, N = 211", "result": "(0.0) %"}, {"measurement": "Serious AE, %", "setting": "[4]; up to Week 14, N = 211", "result": "(2.8) %"}, {"measurement": "Severe AE, %", "setting": "[4]; up to Week 14, N = 211", "result": "(3.3) %"}, {"measurement": "AE leading to withdrawal of study treatment, %", "setting": "[4]; [8]", "result": 0, "unit": "%"}, {"measurement": "Serious AE, %", "setting": "[4]; [8]", "result": 2.8, "unit": "%"}]}
{"molecule": "B1", "values": [{"measurement": "efficacy achieved in AS", "setting": "AS", "result": "low efficacy"}]}
